# The supplement of paper PMC10307832
# Assays:
# Assay in all cases: relative viability (nuclei count vs DMSO), 5 days (fraction); higher = more cells survive
# [1] = compound: CCC1=CN=CN=C1N2CCN(CC2)CC3=NC4=C(N3)C=C(C=C4)C(F)(F)F + CC(=O)c1c(C)c2cnc(Nc3ccc(N4CCNCC4)cn3)nc2n(C2CCCC2)c1=O [Palbociclib] (partner 0.5 µM)
# Method in brief: (§1)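 Lung cancer cell lines were pin-tool dosed in 1536-well plates on the day after seeding, with either a lone drug or a fixed anchor-drug dose plus five library-drug doses (not always all listed) in √10 steps. Nuclei were counted on 4× images after 5 days. Relative viability is the ratio of treated-well to vehicle-well nuclei counts, with each value a median of duplicate plates.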
# [2] = compound: CCC1=CN=CN=C1N2CCN(CC2)CC3=NC4=C(N3)C=C(C=C4)C(F)(F)F + Cc1nc(Nc2ncc(C(=O)Nc3c(C)cccc3Cl)s2)cc(N2CCN(CCO)CC2)n1 [Dasatinib] (partner 0.075 µM)
# Method in brief: as §1
# [3] = compound: CCn1c(-c2nonc2N)nc2cnc(Oc3cccc(NC(=O)c4ccc(OCCN5CCOCC5)cc4)c3)cc21 + COc1cccc2cc(-c3nc([C@H]4CC[C@H](C(=O)O)CC4)n4ncnc(N)c34)[nH]c12 [OSI-027] (partner 0.5 µM)
# Method in brief: as §1
# [4] = compound: CCn1c(-c2nonc2N)nc2cnc(Oc3cccc(NC(=O)c4ccc(OCCN5CCOCC5)cc4)c3)cc21 + NC(=O)Nc1cc(-c2cccc(F)c2)sc1C(=O)N[C@H]1CCCNC1 [AZD7762] (partner 0.2 µM)
# Method in brief: as §1
Cell Line,relative viability ([1]; first compound 0.04 µM),relative viability ([1]; first compound 0.1265 µM),relative viability ([1]; first compound 0.4 µM),relative viability ([1]; first compound 1.265 µM),relative viability ([1]; first compound 4 µM),relative viability ([2]; first compound 0.04 µM),relative viability ([2]; first compound 0.1265 µM),relative viability ([2]; first compound 0.4 µM),relative viability ([2]; first compound 1.265 µM),relative viability ([2]; first compound 4 µM),relative viability ([3]; first compound 0.04 µM),relative viability ([3]; first compound 0.1265 µM),relative viability ([3]; first compound 0.4 µM),relative viability ([3]; first compound 1.265 µM),relative viability ([3]; first compound 4 µM),relative viability ([4]; first compound 0.04 µM),relative viability ([4]; first compound 0.1265 µM),relative viability ([4]; first compound 0.4 µM),relative viability ([4]; first compound 1.265 µM),relative viability ([4]; first compound 4 µM)
201T,0.331,0.348,0.367,0.375,0.344,0.527,0.565,0.559,0.568,0.541,0.857,0.773,0.38,0.674,0.806,0.632,0.603,0.462,0.608,0.535
A-427,0.451,0.489,0.499,0.479,0.475,0.563,0.753,0.659,0.614,0.655,0.585,0.545,0.328,0.411,0.352,0.774,0.503,0.364,0.188,0.21
ABC-1,–,–,0.543,0.628,0.547,0.66,0.507,0.614,0.495,0.449,0.492,0.751,0.272,0.418,0.3,0.96,0.663,0.445,0.402,0.625
BEN,0.454,0.487,0.469,0.437,0.464,0.241,0.261,0.303,0.335,0.288,0.27,0.267,0.243,0.266,0.24,0.683,0.532,0.388,0.385,0.468
CAL-12T,0.558,0.409,0.601,0.288,0.556,0.336,0.352,0.417,0.518,0.36,0.857,0.826,0.43,0.603,0.469,0.675,0.601,0.56,0.267,0.353
COR-L23,0.234,0.298,0.259,0.254,0.282,0.536,0.477,0.502,0.481,0.484,0.686,0.54,0.326,0.207,0.144,–,–,–,–,–
COR-L 105,0.416,0.444,0.371,0.363,0.428,0.279,0.316,0.362,0.399,0.338,0.976,0.654,0.361,0.374,0.26,–,–,–,–,–
ChaGo-K-1,0.976,0.946,0.929,0.907,0.881,0.654,0.635,0.555,0.615,0.492,0.679,0.521,0.313,0.393,0.307,0.978,0.867,0.738,0.596,0.581
EKVX,0.405,0.387,0.325,0.337,0.377,0.558,0.484,0.527,0.491,0.415,0.839,0.77,0.613,0.65,0.545,0.927,0.718,0.478,0.476,0.621
EMC-BAC-2,0.483,0.532,0.533,0.463,0.554,0.358,0.354,0.322,–,0.289,0.364,0.287,0.161,0.18,0.2,1.17,1.01,0.504,0.476,0.32
EPLC-272H,0.338,0.302,0.324,0.318,0.327,0.332,0.33,0.313,0.291,0.421,0.363,0.339,0.246,0.234,0.247,0.211,0.199,0.153,0.128,0.0806
H3255,0.313,0.308,0.325,0.292,0.343,0.308,0.294,0.347,0.367,0.317,0.831,0.713,0.603,0.506,0.638,0.967,0.737,0.742,0.383,0.481
HARA,0.281,0.314,0.283,–,0.295,0.371,0.337,0.19,–,0.203,0.533,0.38,0.141,0.148,0.102,0.215,0.161,0.148,0.207,0.198
HCC-15,0.717,0.723,0.646,0.612,0.682,0.632,0.552,0.597,0.624,0.594,0.806,0.617,0.324,–,0.536,1.3,1.51,0.974,1.05,0.987
HCC-44,0.965,0.956,0.991,0.937,0.859,–,–,–,–,–,0.533,0.423,0.175,0.111,0.225,1.07,1.18,0.916,0.975,0.333
HCC-78,0.447,0.461,0.477,0.451,0.468,0.327,0.416,0.374,0.316,0.363,0.43,0.429,–,0.574,0.625,0.865,0.821,–,0.617,0.906
HCC-366,0.319,0.328,0.321,0.34,0.383,0.566,0.655,0.567,0.583,0.629,1.21,0.939,0.203,0.0538,0.0491,0.233,0.123,0.101,0.0314,0.0325
HCC-827,0.497,0.53,0.498,0.431,0.468,0.323,0.298,0.313,0.364,0.355,0.961,0.855,0.78,0.707,0.756,0.241,0.23,0.233,0.178,0.203
HOP-62,0.475,0.451,0.414,0.438,0.413,0.589,0.584,0.539,0.626,0.653,0.998,0.734,0.56,0.422,0.469,0.774,0.443,0.468,0.227,0.19

Cell Line,relative viability ([1]; first compound 0.04 µM),relative viability ([1]; first compound 0.1265 µM),relative viability ([1]; first compound 0.4 µM),relative viability ([1]; first compound 1.265 µM),relative viability ([1]; first compound 4 µM),relative viability ([2]; first compound 0.04 µM),relative viability ([2]; first compound 0.1265 µM),relative viability ([2]; first compound 0.4 µM),relative viability ([2]; first compound 1.265 µM),relative viability ([2]; first compound 4 µM),relative viability ([3]; first compound 0.04 µM),relative viability ([3]; first compound 0.1265 µM),relative viability ([3]; first compound 0.4 µM),relative viability ([3]; first compound 1.265 µM),relative viability ([3]; first compound 4 µM),relative viability ([4]; first compound 0.04 µM),relative viability ([4]; first compound 0.1265 µM),relative viability ([4]; first compound 0.4 µM),relative viability ([4]; first compound 1.265 µM),relative viability ([4]; first compound 4 µM)
LC-2-ad,0.471,0.48,0.501,0.466,0.472,0.489,0.542,0.508,0.507,0.484,0.892,0.8,0.39,0.386,0.498,0.882,0.79,0.57,0.368,0.281
LCLC-97TM1,0.196,0.2,0.228,0.282,0.196,0.881,0.765,0.668,0.816,0.897,0.516,0.655,0.254,0.691,0.528,0.273,0.425,–,–,0.135
LCLC-103H,0.501,0.471,0.436,0.485,0.448,0.473,0.444,0.414,0.483,0.474,0.522,0.448,0.231,0.312,0.323,0.837,0.743,0.422,0.397,0.404
LK-2,0.685,0.469,0.752,0.381,0.594,0.325,0.314,0.257,0.258,0.318,0.201,0.225,0.18,0.196,0.206,0.525,0.583,0.156,0.113,0.284
LOU-NH91,0.523,0.565,0.541,0.542,0.558,0.477,0.466,0.485,0.533,0.568,0.741,0.561,0.44,0.426,0.471,0.782,0.631,0.421,0.432,0.424
NCI-H520,0.255,0.233,0.194,0.174,0.2,0.212,0.181,0.224,0.206,0.226,0.354,0.36,0.279,0.332,0.224,–,–,–,–,–
NCI-H596,–,–,–,–,–,0.679,0.608,0.555,–,0.668,0.755,0.715,0.591,0.528,0.615,1.23,0.926,0.941,0.762,0.9
NCI-H661,0.378,0.398,0.416,0.386,0.38,0.951,0.872,0.827,0.772,0.909,0.562,0.593,0.445,0.467,0.33,–,–,–,–,–
NCI-H1563,–,–,–,–,–,0.472,0.476,0.489,0.435,0.513,0.697,0.705,0.576,0.724,0.644,–,–,–,–,–
NCI-H1623,–,–,–,–,–,0.455,0.501,0.548,0.564,0.562,0.513,0.488,0.351,0.43,0.542,–,–,–,–,–
NCI-H1648,0.235,–,–,0.296,0.303,–,–,–,–,–,0.258,0.393,0.276,0.314,0.327,0.978,1.02,0.981,1.09,0.693
NCI-H1650,0.325,0.311,0.348,0.223,0.39,0.346,0.299,0.333,–,0.309,0.666,0.678,0.551,0.535,0.656,–,–,–,–,–
NCI-H1703,–,–,–,–,–,–,–,–,–,–,–,–,–,–,–,–,0.111,0.115,0.119,0.123
NCI-H2009,0.195,0.238,0.184,0.15,0.0584,0.269,0.309,0.298,0.249,0.275,0.753,0.597,0.39,0.361,0.322,–,–,–,–,–
NCI-H2023,0.422,0.347,0.358,0.376,0.345,0.641,0.546,0.529,0.488,0.582,0.497,0.47,0.261,0.299,0.269,–,–,–,–,–
NCI-H2228,–,0.595,0.684,0.472,0.877,0.515,0.44,0.409,0.416,0.712,0.662,0.637,0.386,0.545,0.405,–,–,–,–,–
SK-LU-1,0.412,0.394,0.41,0.26,0.418,0.18,0.172,0.2,0.169,0.205,0.359,0.322,0.216,0.199,0.22,–,–,–,–,–
SK-MES-1,0.322,0.327,0.278,0.32,0.318,0.342,0.376,0.416,0.319,0.493,0.651,0.601,0.403,0.386,0.359,–,–,–,–,–
SW 1573,0.345,0.406,0.384,0.262,0.32,0.382,0.453,0.5,0.494,0.452,0.835,0.594,0.299,0.326,0.237,–,–,–,–,–
